Reference: PubChem BioAssay (NCI)
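Dose response: 5 concentrations. Exposure: 48 h. Format: 96-well plates. Endpoint: linear interpolation; highest concentration if not reached. TGI marks complete inhibition of growth.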 Where a SMILES comes first, the peptide text is derived from it. The star is where a group is joined. Cbz = O=C(OCc1ccccc1)*; NHNH2 = NN*

Key:
Assay in all cases: inhibition of tumour cell growth, NCI panel, 48 h
[1] = test system: HT29 colon
[2] = test system: HCT-116 colon
[3] = test system: EKVX NSCLC
[4] = test system: BT-549 breast
[5] = test system: SK-MEL-28 melanoma
[6] = test system: OVCAR-4 ovarian
[7] = test system: NCI-H23 lung
[8] = test system: NCI-H522 lung
[9] = test system: TK-10 renal
[10] = test system: SN12C renal
[11] = test system: SF-539 CNS
[12] = test system: PC-3 prostate
[13] = test system: MDA-MB-231 breast
[14] = test system: A498 renal
[15] = test system: UACC-62 melanoma
[16] = test system: SF-268 CNS
[17] = test system: HOP-92 NSCLC
[18] = test system: MCF7 breast

| SMILES | TGI [1] [µM] | TGI [2] [µM] | TGI [3] [µM] | TGI [4] [µM] | TGI [5] [µM] | TGI [6] [µM] | TGI [7] [µM] | TGI [8] [µM] | TGI [9] [µM] | TGI [10] [µM] | TGI [11] [µM] | TGI [12] [µM] | TGI [13] [µM] | TGI [14] [µM] | TGI [15] [µM] | TGI [16] [µM] | TGI [17] [µM] | TGI [18] [µM] |
| --- | --- | --- | --- | --- | --- | --- | --- | --- | --- | --- | --- | --- | --- | --- | --- | --- | --- | --- |
| CSc1c(CC(=O)Nc2ccc(Cl)cc2)n(Cc2ccccc2)c2ccccc12 | > 100 | > 100 | > 100 | 46.9 | > 100 | 35.5 | > 100 | > 100 | 57.4 | > 100 | 9.6 | 27.7 | 39.3 | 25.9 | > 100 | > 100 | 42.8 | > 100 |
| CCOC(=O)C(C)c1nc2ccc(C(F)(F)F)cc2[nH]c1=O (stereo not drawn) | > 100 | > 100 | > 100 | > 100 | > 100 | > 100 | > 100 | – | > 100 | > 100 | > 100 | > 100 | > 100 | > 100 | > 100 | > 100 | > 100 | > 100 |
| COc1c2c(cc3c1C1(O)Cc4ccc5c(c4C[N+]1(C)CC3)OCO5)OCO2 (stereo not drawn) | > 100 | > 100 | > 100 | > 100 | > 100 | > 100 | > 100 | > 100 | > 100 | > 100 | > 100 | > 100 | > 100 | > 100 | > 100 | > 100 | > 100 | > 100 |
| COc1cc2ccc1OCc1cccc(n1)COc1ccc(cc1OC)C=NCCNCCNCCN=C2 | > 100 | > 100 | > 100 | > 100 | – | > 100 | > 100 | > 100 | > 100 | > 100 | > 100 | > 100 | > 100 | > 100 | > 100 | > 100 | > 100 | > 100 |
| C=CCc1cc(C(Cc2ccccc2)NC(C)C)cc(OCc2ccccc2)c1OCc1ccccc1 (stereo not drawn) | 28.6 | 31.2 | 30 | 31.4 | 30.2 | 33.1 | 33.8 | 28.8 | 30.8 | 29.4 | 29 | 28.8 | 28.3 | 29.2 | 28.4 | 30 | 25.3 | 32 |
| O=C(NNS(=O)(=O)c1ccccc1)c1cccnc1 | > 100 | > 100 | > 100 | > 100 | > 100 | > 100 | > 100 | > 100 | > 100 | > 100 | > 100 | > 100 | > 100 | > 100 | > 100 | > 100 | > 100 | > 100 |
| C=CCCCCOC1C=CC(O)C(CO)O1 (stereo not drawn) | > 100 | > 100 | > 100 | > 100 | > 100 | > 100 | > 100 | > 100 | > 100 | > 100 | > 100 | > 100 | > 100 | > 100 | > 100 | > 100 | > 100 | > 100 |
| Cc1cccc(C)c1Nc1nc(C)c(C(=O)CC(=O)C(=O)Nc2c(C(C)C)cccc2C(C)C)s1 | > 100 | > 100 | > 100 | > 100 | > 100 | > 100 | > 100 | > 100 | > 100 | > 100 | > 100 | > 100 | > 100 | – | > 100 | > 100 | > 100 | > 100 |
| COc1nc2c(c(=O)n1C)N=C(c1ccc(Cl)cc1)CC(c1ccccc1)N2 (stereo not drawn) | 47.4 | 63.5 | 69.2 | 67.5 | > 100 | 48.5 | 69.1 | 44.9 | – | 54.4 | 31.5 | > 100 | 53.7 | > 100 | 37.6 | – | > 100 | 28.8 |
| N#C/C(N)=C(\C#N)N=CNc1ccc(N)cc1 | > 100 | > 100 | > 100 | > 100 | > 100 | > 100 | > 100 | > 100 | > 100 | > 100 | > 100 | > 100 | > 100 | > 100 | > 100 | > 100 | – | > 100 |
| O=C(Nc1nnc(-c2c(Cl)c(Cl)c(Cl)c(Cl)c2-c2nc3cc(C(=O)c4ccccc4)ccc3[nH]2)o1)c1ccc(Cl)cc1 | > 100 | > 100 | > 100 | > 100 | > 100 | > 100 | > 100 | – | > 100 | 53 | > 100 | > 100 | > 100 | 43.4 | – | – | > 100 | > 100 |
| Cc1ccc(O)c(C2=CC(c3cccc(Br)c3)SC(N)=N2)c1 (stereo not drawn) | > 100 | 35.9 | 59.9 | 83.6 | – | > 100 | 76.3 | 37.7 | 46.1 | 40.7 | 50.3 | > 100 | 64 | – | 34.5 | 88.9 | 60.4 | > 100 |
| CCOC(=O)CCC(NC(=O)OCc1ccccc1)C(=O)NC(CCC(=O)OCC)C(=O)NN (stereo not drawn) (Cbz-Glu(OEt)-Glu(OEt)-NHNH2; configuration not given here) | > 100 | > 100 | > 100 | > 100 | > 100 | – | – | – | > 100 | > 100 | – | > 100 | > 100 | > 100 | > 100 | – | > 100 | > 100 |
